The values below come from patent EP4670739A1, “ALBUMIN CONJUGATE, METHOD FOR PRODUCING SAME, AND COMPOSITION FOR TARGETING, DIAGNOSING, OR TREATING CANCER COMPRISING SAME” (Kytecbio Co., Ltd., priority 2023, dated 2024).

A short description of this test: ROS production according to lysine concentration. The note with it: 10 µM B3 mixed with about 1.0 mM monomeric lysine, PBS pH 7.4, light of about 530 nm. As to the method: • i) 1.0 mM lysine (hereinafter, Lys) was mixed in PBS buffer solution (pH 7.4) and irradiated with light of about 530 nm. The fluorescence generated over time was measured using a Scinco FS-2, and results thereof are shown in FIG. 7A. • ii) The result of mixing 10 µM boron-containing compound B3 instead of the 1.0 mM lysine (Lys) is shown in FIG. 7B, iii) the result of mixing 10 µM boron-containing compound B3 and 0.1 mM lysine (Lys) instead of the 1.0 mM lysine (Lys) is shown in FIG. 7C, and iv) the result of mixing 10 µM boron-containing compound B3 and 1.0 mM lysine (Lys) instead of the 1.0 mM lysine (Lys) is shown in FIG. 7D.

With `O=Cc1cc2ccccc2cc1NCc1ccccc1B(O)O` [B3], the “reactive oxygen species generated” value is reported as “relatively large amount”.
